Reference: US20050202973A1, “Aryl-alkyne compounds as herbicides” (priority 2002, published 2005)

Experiments:
Type in all cases: in vivo
Abutilon (Abut) [1] = experiment: Post-emergence herbicidal action (Example B2); design: key: 1=total damage; 9=no action; Ratings of from 1 to 4 (especially from 1 to 3) indicate good to very good herbicidal action; conditions: 1000 g of active compound per ha; post-emergence spray at 2- to 3-leaf stage; evaluated after 2 to 3 weeks; scale 1=total damage, 9=no action
Protocol: (§1) Monocotyledonous and dicotyledonous test plants are sown in standard soil in pots. When the test plants are at the 2- to 3-leaf stage, the test compounds, in the form of an aqueous suspension (prepared from a wettable powder (Example F3, b) according to WO 97/34485) or in the form of an emulsion (prepared from an emulsifiable concentrate (Example F1, c) according to WO 97/34485), are applied by spraying, in an optimum concentration (500 litres of water per ha). The test plants are then grown on in a greenhouse under optimum conditions. After a test duration of 2 to 3 weeks, the test is evaluated in accordance with a scale of nine ratings (1=total damage, 9=no action). Ratings of from 1 to 4 (especially from 1 to 3) indicate good to very good herbicidal action. Test plants. Panicum (Pani), Euphorbia (Euph), Abutilon (Abut), Amaranthus (Amara), Stellaria (Stell), Veronica (Vero).

Stellaria (Stell) [2] = experiment: Post-emergence herbicidal action (Example B2); design: key: 1=total damage; 9=no action; Ratings of from 1 to 4 (especially from 1 to 3) indicate good to very good herbicidal action; conditions: 1000 g of active compound per ha; post-emergence spray at 2- to 3-leaf stage; evaluated after 2 to 3 weeks; scale 1=total damage, 9=no action
Protocol: as §1

Amaranthus (Amara) = experiment: Post-emergence herbicidal action (Example B2); design: key: 1=total damage; 9=no action; Ratings of from 1 to 4 (especially from 1 to 3) indicate good to very good herbicidal action; conditions: 1000 g of active compound per ha; post-emergence spray at 2- to 3-leaf stage; evaluated after 2 to 3 weeks; scale 1=total damage, 9=no action
Protocol: as §1

Euphorbia (Euph) [3] = experiment: Post-emergence herbicidal action (Example B2); design: key: 1=total damage; 9=no action; Ratings of from 1 to 4 (especially from 1 to 3) indicate good to very good herbicidal action; conditions: 1000 g of active compound per ha; post-emergence spray at 2- to 3-leaf stage; evaluated after 2 to 3 weeks; scale 1=total damage, 9=no action
Protocol: as §1

Panicum (Pani) [4] = experiment: Post-emergence herbicidal action (Example B2); design: key: 1=total damage; 9=no action; Ratings of from 1 to 4 (especially from 1 to 3) indicate good to very good herbicidal action; conditions: 1000 g of active compound per ha; post-emergence spray at 2- to 3-leaf stage; evaluated after 2 to 3 weeks; scale 1=total damage, 9=no action
Protocol: as §1

Veronica (Vero) = experiment: Post-emergence herbicidal action (Example B2); design: key: 1-9 scale: 1 = total damage, 9 = no action; conditions: 1000 g of active compound per ha; post-emergence spray at 2- to 3-leaf stage; evaluated after 2 to 3 weeks; scale 1=total damage, 9=no action
Protocol: as §1

Amaranthus (Amar) = experiment: Pre-emergence herbicidal action (Example B1); design: key: 1=total damage; 9=no action; Ratings of from 1 to 4 (especially from 1 to 3) indicate good to very good herbicidal action; conditions: 1000 g of active compound per ha; sprayed immediately after sowing; evaluated after 4 weeks; scale of nine ratings (1=total damage, 9=no action)
Protocol: (§2) Monocotyledonous and dicotyledonous test plants are sown in standard soil in pots. Immediately after sowing, the test compounds, in the form of an aqueous suspension (prepared from a wettable powder (Example F3, b) according to WO 97/34485) or in the form of an emulsion (prepared from an emulsifiable concentrate (Example F1, c) according to WO 97/34485), are applied by spraying, in an optimum concentration (500 litres of water per ha). The test plants are then grown in a greenhouse under optimum conditions. After a test duration of 4 weeks, the test is evaluated in accordance with a scale of nine ratings (1=total damage, 9=no action). Ratings of from 1 to 4 (especially from 1 to 3) indicate good to very good herbicidal action. Test plants: Panicum (Pani), Digitaria (Digit), Euphorbia (Euph), Sida, Abutilon (Abut), Amaranthus (Amar), Chenopodium (Cheno), Stellaria (Stell).

Sida = experiment: Pre-emergence herbicidal action (Example B1); design: key: 1=total damage; 9=no action; Ratings of from 1 to 4 (especially from 1 to 3) indicate good to very good herbicidal action; conditions: 1000 g of active compound per ha; sprayed immediately after sowing; evaluated after 4 weeks; scale of nine ratings (1=total damage, 9=no action)
Protocol: as §2

Abutilon (Abut) [5] = experiment: Pre-emergence herbicidal action (Example B1); design: key: 1=total damage; 9=no action; Ratings of from 1 to 4 (especially from 1 to 3) indicate good to very good herbicidal action; conditions: 1000 g of active compound per ha; sprayed immediately after sowing; evaluated after 4 weeks; scale of nine ratings (1=total damage, 9=no action)
Protocol: as §2

Stellaria (Stell) [6] = experiment: Pre-emergence herbicidal action (Example B1); design: key: 1=total damage; 9=no action; Ratings of from 1 to 4 (especially from 1 to 3) indicate good to very good herbicidal action; conditions: 1000 g of active compound per ha; sprayed immediately after sowing; evaluated after 4 weeks; scale of nine ratings (1=total damage, 9=no action)
Protocol: as §2

Chenopodium (Cheno) = experiment: Pre-emergence herbicidal action (Example B1); design: key: 1=total damage; 9=no action; Ratings of from 1 to 4 (especially from 1 to 3) indicate good to very good herbicidal action; conditions: 1000 g of active compound per ha; sprayed immediately after sowing; evaluated after 4 weeks; scale of nine ratings (1=total damage, 9=no action)
Protocol: as §2

Digitaria (Digit) = experiment: Pre-emergence herbicidal action (Example B1); design: key: 1=total damage; 9=no action; Ratings of from 1 to 4 (especially from 1 to 3) indicate good to very good herbicidal action; conditions: 1000 g of active compound per ha; sprayed immediately after sowing; evaluated after 4 weeks; scale of nine ratings (1=total damage, 9=no action)
Protocol: as §2

Euphorbia (Euph) [7] = experiment: Pre-emergence herbicidal action (Example B1); design: key: 1=total damage; 9=no action; Ratings of from 1 to 4 (especially from 1 to 3) indicate good to very good herbicidal action; conditions: 1000 g of active compound per ha; sprayed immediately after sowing; evaluated after 4 weeks; scale of nine ratings (1=total damage, 9=no action)
Protocol: as §2

Panicum (Pani) [8] = experiment: Pre-emergence herbicidal action (Example B1); design: key: 1=total damage; 9=no action; Ratings of from 1 to 4 (especially from 1 to 3) indicate good to very good herbicidal action; conditions: 1000 g of active compound per ha; sprayed immediately after sowing; evaluated after 4 weeks; scale of nine ratings (1=total damage, 9=no action)
Protocol: as §2

Compound	Post-emergence herbicidal action rating, Abut (Abutilon (Abut) [1])	Post-emergence herbicidal action rating, Stell (Stellaria (Stell) [2])	Post-emergence herbicidal action rating, Amar (Amaranthus (Amara))	Post-emergence herbicidal action rating, Euph (Euphorbia (Euph) [3])	Post-emergence herbicidal action rating, Pani (Panicum (Pani) [4])	Post-emergence herbicidal action rating, Vero (Veronica (Vero))	Pre-emergence herbicidal action rating, Amar (Amaranthus (Amar))	Pre-emergence herbicidal action rating, Sida (Sida)	Pre-emergence herbicidal action rating, Abut (Abutilon (Abut) [5])	Pre-emergence herbicidal action rating, Stell (Stellaria (Stell) [6])	Pre-emergence herbicidal action rating, Cheno (Chenopodium (Cheno))	Pre-emergence herbicidal action rating, Digit (Digitaria (Digit))	Pre-emergence herbicidal action rating, Euph (Euphorbia (Euph) [7])	Pre-emergence herbicidal action rating, Pani (Panicum (Pani) [8])
N#CCc1cccc(C#CCOc2ncc(Cl)cn2)c1 [7.021]	2	3	1	1	2	3								
N#CCc1cccc(C#CCOc2ncc(F)cn2)c1 [7.008]	2	2	2	2	2	2								
COc1cncnc1OCC#Cc1cccc(CC#N)c1 [Compound 5.025, {3-[3-(5-methoxy-pyrimidin-4-yloxy)-prop-1-ynyl]-phenyl}-acetonitrile]	1	1	4	1	2	4								
N#CCc1ccc(F)c(C#CCOc2ncc(Cl)cn2)c1 [7.028]		1	1	1		2								
COc1nccnc1OCC#Cc1cccc(CC#N)c1 [Compound 1.048]	3	2	1	1	4	2	1	1	1	1	1	2	1	4
COc1nc(Cl)cnc1OCC#Cc1cccc(CC#N)c1 [Compound 1.041, {3-[3-(5-chloro-3-methoxy-pyrazin-2-yloxy)-prop-1-ynyl]-phenyl}-acetonitrile]	2	2	2	1	2	2	1	1	1	1	1	1	1	1
N#CCc1cc(C#CCOc2ncc(Cl)cn2)ccc1F [Compound 7.022]		3	1	1	2	2	1	1	1	1	3	1	3	1
COc1nc(C)ncc1OCC#Cc1cccc(CC#N)c1 [4.033]	3	2	3	2	2	4								
N#CCc1cc(C#CCOc2ncc(Cl)cn2)c(F)cc1F [7.031]	3	3	2	3	2	2								
N#CCc1cc(C#CCOc2ncc(F)cn2)ccc1F [7.027]	4	3	2	2	1	4								
N#CCc1cccc(C#CCOc2ncc(Br)cn2)c1 [Compound 7.006]	3	4	2	1	5	5			2	1	1		1	2
